# Results published in PubChem BioAssay AID2060886 (Molecular Pharmacology Branch, DTP, NCI, 2025).
# pIC50: −log10 of the molar value.
# Tested on: 653999-131-R-J2-PDC complex spheroids, growth inhibition
# Assay: Anticancer human tumor 653999-131-R-J2-PDC patient-derived lung adenocarcinoma cell line growth inhibition [RAS]
# Conditions: for pIC50: curve of first compound; for viability, T/C: stronger effect = lower value
# In short: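 Agents were tested in combination matrices in half-log decrements from a top concentration at or near clinical Cmax (10 microM if undetermined). Targets were multi-cell spheroids of tumour lines plus HUVEC and MSC stromal cells.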
# 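Also: spheroids exposed to the agents for seven days before the readout.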
compound,measurement,setting,value
Nc1ccn(C2OC(CO)C(O)C2(F)F)c(=O)n1 (configuration not stated) + CCn1c(-c2cccnc2C(C)OC)c2c3cc(ccc31)N1CCOC(CC(NC(=O)C(C(C)C)N(C)C(=O)C3(F)CCN(C(=O)C#CC(C)(C)N(C)C)CC3)C(=O)N3CCCC(N3)C(=O)OCC(C)(C)C2)C1,pIC50,second compound 0.000949 µM,7.15
same,pIC50,second compound 0.003 µM,7.18
same,pIC50,second compound 0.00949 µM,7.21
same,pIC50,second compound 0.03 µM,7.19
same,pIC50,second compound 0.0949 µM,7.37
same,pIC50,second compound 0.3 µM,7.23
same,"viability, T/C","second compound 0.000949 µM, first compound 0.00316 µM",93.8%
same,"viability, T/C","second compound 0.000949 µM, first compound 0.01 µM",74.9%
same,"viability, T/C","second compound 0.000949 µM, first compound 0.0316 µM",59.8%
same,"viability, T/C","second compound 0.000949 µM, first compound 0.1 µM",41.4%
same,"viability, T/C","second compound 0.000949 µM, first compound 0.316 µM",49.4%
same,"viability, T/C","second compound 0.000949 µM, first compound 1 µM",37.4%
same,"viability, T/C","second compound 0.003 µM, first compound 0.00316 µM",110%
same,"viability, T/C","second compound 0.003 µM, first compound 0.01 µM",74.8%
same,"viability, T/C","second compound 0.003 µM, first compound 0.0316 µM",57.9%
same,"viability, T/C","second compound 0.003 µM, first compound 0.1 µM",44.7%
same,"viability, T/C","second compound 0.003 µM, first compound 0.316 µM",44%
same,"viability, T/C","second compound 0.003 µM, first compound 1 µM",36.1%
same,"viability, T/C","second compound 0.00949 µM, first compound 0.00316 µM",93.1%
same,"viability, T/C","second compound 0.00949 µM, first compound 0.01 µM",67.1%
same,"viability, T/C","second compound 0.00949 µM, first compound 0.0316 µM",59.7%
same,"viability, T/C","second compound 0.00949 µM, first compound 0.1 µM",45.5%
same,"viability, T/C","second compound 0.00949 µM, first compound 0.316 µM",36.9%
same,"viability, T/C","second compound 0.00949 µM, first compound 1 µM",38.2%
same,"viability, T/C","second compound 0.03 µM, first compound 0.00316 µM",93.8%
same,"viability, T/C","second compound 0.03 µM, first compound 0.01 µM",66.9%
same,"viability, T/C","second compound 0.03 µM, first compound 0.0316 µM",57.7%
same,"viability, T/C","second compound 0.03 µM, first compound 0.1 µM",50.3%
same,"viability, T/C","second compound 0.03 µM, first compound 0.316 µM",36%
same,"viability, T/C","second compound 0.03 µM, first compound 1 µM",31.8%
same,"viability, T/C","second compound 0.0949 µM, first compound 0.00316 µM",94.5%
same,"viability, T/C","second compound 0.0949 µM, first compound 0.01 µM",64.9%
same,"viability, T/C","second compound 0.0949 µM, first compound 0.0316 µM",53.8%
same,"viability, T/C","second compound 0.0949 µM, first compound 0.1 µM",45.6%
same,"viability, T/C","second compound 0.0949 µM, first compound 0.316 µM",37.2%
same,"viability, T/C","second compound 0.0949 µM, first compound 1 µM",33.2%
same,"viability, T/C","second compound 0.3 µM, first compound 0.00316 µM",91.5%
same,"viability, T/C","second compound 0.3 µM, first compound 0.01 µM",78.3%
same,"viability, T/C","second compound 0.3 µM, first compound 0.0316 µM",62.2%
same,"viability, T/C","second compound 0.3 µM, first compound 0.1 µM",40.1%
same,"viability, T/C","second compound 0.3 µM, first compound 0.316 µM",33.3%
same,"viability, T/C","second compound 0.3 µM, first compound 1 µM",33.5%
